How the values were obtained:
Test in all cases: relative viability (nuclei count vs DMSO), 5 days (fraction); higher = more cells survive
[1] = compound: Cc1cnc(-c2cnc(NCCNc3ccc(C#N)cn3)nc2-c2ccc(Cl)cc2Cl)[nH]1
Method in brief: (§1)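 Hoechst staining, done together with fixation and permeabilisation, marked nuclei for 4× imaging and MetaXpress counting. This followed 5 days without medium change after lung cancer cell lines, kept overnight at 37 °C in 1536-well plates, were pinned with five library-drug doses (not always all listed) spaced by √10 on vehicle-anchored plates. Viability is the ratio of treated-well to vehicle-well nuclei, expressed as a median across plates. Plates passed only at control CV below 25% with at least one doubling.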

[2] = compound: CC(=O)O[C@@]12CO[C@@H]1C[C@H](O)[C@@]1(C)C(=O)[C@H](O)C3=C(C)[C@@H](OC(=O)[C@H](O)[C@@H](NC(=O)OC(C)(C)C)c4ccccc4)C[C@@](O)([C@@H](OC(=O)c4ccccc4)[C@H]21)C3(C)C [Docetaxel]
Method in brief: as §1

[3] = compound: COc1cc2nccc(Oc3ccc(NC(=O)Nc4cc(C)on4)c(Cl)c3)c2cc1OC [Tivozanib]
Method in brief: as §1

[4] = compound: Nc1ccn([C@@H]2O[C@H](CO)[C@@H](O)[C@@H]2O)c(=O)n1 [Cytarabine]
Method in brief: as §1

[5] = compound: O=C(O)CCCCC(CCSCc1ccccc1)SCc1ccccc1 [CPI-613]
Method in brief: as §1

[6] = compound: Cc1sc2c(c1C)C(c1ccc(Cl)cc1)=N[C@@H](CC(=O)OC(C)(C)C)c1nnc(C)n1-2 [JQ1]
Method in brief: as §1

[7] = compound: O=c1[nH]c2ccccc2n1C1CCN(CCCC(c2ccc(F)cc2)c2ccc(F)cc2)CC1 [Pimozide]
Method in brief: as §1

| Cell Line | relative viability ([1]; 0.08 µM) | relative viability ([1]; 0.253 µM) | relative viability ([1]; 0.8 µM) | relative viability ([1]; 2.53 µM) | relative viability ([2]; 0.0002 µM) | relative viability ([2]; 0.000632 µM) | relative viability ([2]; 0.002 µM) | relative viability ([2]; 0.006325 µM) | relative viability ([2]; 0.02 µM) | relative viability ([3]; 0.005 µM) | relative viability ([3]; 0.01581 µM) | relative viability ([3]; 0.05 µM) | relative viability ([3]; 0.1581 µM) | relative viability ([3]; 0.5 µM) | relative viability ([4]; 0.005 µM) | relative viability ([4]; 0.01581 µM) | relative viability ([4]; 0.05 µM) | relative viability ([4]; 0.1581 µM) | relative viability ([4]; 0.5 µM) | relative viability ([5]; 5 µM) | relative viability ([5]; 15.81 µM) | relative viability ([5]; 50 µM) | relative viability ([5]; 158.11 µM) | relative viability ([5]; 500 µM) | relative viability ([6]; 0.04 µM) | relative viability ([6]; 0.1265 µM) | relative viability ([6]; 0.4 µM) | relative viability ([6]; 1.265 µM) | relative viability ([6]; 4 µM) | relative viability ([7]; 0.08 µM) | relative viability ([7]; 0.253 µM) | relative viability ([7]; 0.8 µM) | relative viability ([7]; 2.53 µM) | relative viability ([7]; 8 µM) |
| --- | --- | --- | --- | --- | --- | --- | --- | --- | --- | --- | --- | --- | --- | --- | --- | --- | --- | --- | --- | --- | --- | --- | --- | --- | --- | --- | --- | --- | --- | --- | --- | --- | --- | --- |
| NCI-H2085 | 1.04 | 0.933 | 0.995 | 1.02 | 0.968 | 0.987 | 0.746 | 0.504 | 0.373 | 0.982 | 1 | 1.02 | 0.936 | 0.982 | 0.965 | 0.929 | 0.868 | 0.808 | 0.801 | 0.987 | 0.935 | 0.935 | 0.82 | 0.246 | 1.01 | 0.891 | 0.867 | 0.622 | 0.537 | 0.973 | 1.01 | 0.957 | 1.02 | 0.881 |
| A549 | 1.06 | 0.957 | 0.945 | 0.958 | 0.914 | 0.68 | 0.0907 | 0.0644 | 0.0347 | 0.939 | 0.99 | 0.994 | 0.942 | 0.944 | 0.861 | 0.682 | 0.391 | 0.101 | 0.0441 | 0.973 | 0.911 | 0.978 | 0.624 | 0.647 | 0.953 | 0.912 | 0.909 | 0.686 | 0.363 | 0.96 | 0.89 | 0.981 | 0.952 | 0.874 |
| NCI-H1563 | 1.03 | 0.999 | 0.934 | 1.09 | 0.881 | 0.974 | 1.08 | 0.744 | 0.593 | 0.958 | 1.05 | 0.975 | 0.95 | 1 | 0.936 | 0.974 | 0.971 | 0.835 | 0.771 | 1.05 | 0.957 | 0.996 | 0.531 | 0.307 | 0.898 | 0.785 | 0.778 | 0.648 | 0.661 | 0.952 | 1.03 | 0.93 | 0.869 | 0.867 |
| IA-LM | 1.02 | 0.8 | 1.02 | 0.916 | 0.704 | 0.231 | 0.131 | 0.0652 | 0.0513 | 0.865 | 1.01 | 0.909 | 0.767 | 0.845 | 0.962 | 0.814 | 0.662 | 0.38 | 0.226 | 0.818 | 0.779 | 0.85 | 0.525 | 0.671 | 0.907 | 0.419 | 0.165 | 0.11 | 0.085 | 0.951 | 1.02 | 0.929 | 1.02 | 0.966 |
| NCI-H647 | 1.06 | 0.862 | 0.931 | 0.934 | 0.739 | 0.43 | 0.209 | 0.148 | 0.0799 | 0.843 | 0.98 | 0.981 | 0.844 | 0.826 | 0.63 | 0.323 | 0.265 | 0.111 | 0.0762 | 0.913 | 0.778 | 0.871 | 0.499 | 0.239 | 0.894 | 0.569 | 0.527 | 0.292 | 0.121 | 0.91 | 0.981 | 0.848 | 0.857 | 0.806 |
| LXF-289 | 1.01 | 0.864 | 1.06 | 1.1 | 1 | 0.731 | 0.473 | 0.171 | 0.128 | 0.998 | 0.935 | 0.996 | 1.1 | 0.956 | 0.93 | 1 | 0.883 | 0.563 | 0.305 | 0.922 | 0.958 | 0.992 | 0.78 | 0.0678 | 0.984 | 0.965 | 0.981 | 0.936 | 0.671 | 0.963 | 1 | 0.917 | 0.998 | 0.923 |
| NCI-H2087 | 1.12 | 0.723 | 1.05 | 0.886 | 0.947 | 0.5 | 0.223 | 0.182 | 0.107 | 0.988 | 0.972 | 0.956 | 1.28 | 0.995 | 0.946 | 0.888 | 0.722 | 0.614 | 0.36 | 0.971 | 1.09 | 0.954 | 0.307 | 0.0055 | 0.996 | 0.661 | 0.963 | 0.581 | 0.451 | 1.11 | 1.05 |  | 1.05 | 0.773 |
| NCI-H1703 | 1.14 | 0.901 | 1.01 | 1.28 | 0.891 | 0.869 | 0.274 | 0.163 | 0.127 | 0.36 | 0.271 | 0.311 | 0.211 | 0.215 | 0.729 | 0.393 | 0.288 | 0.16 | 0.153 | 1.04 | 0.836 | 0.749 | 0.585 | 0.406 | 0.865 | 0.675 | 0.639 | 0.431 | 0.405 | 0.899 | 0.916 | 0.913 | 0.95 | 0.892 |
| 201T | 1.01 |  | 0.966 | 0.992 | 0.977 | 0.963 | 0.657 | 0.469 | 0.369 | 1.01 | 1.01 | 1.03 | 0.912 | 0.991 | 0.981 | 1.03 | 0.977 | 0.873 | 0.787 | 0.97 | 0.909 | 0.968 | 0.756 | 0.862 | 0.97 | 0.561 | 0.865 | 0.458 | 0.386 | 0.98 | 0.977 | 0.965 | 0.936 | 0.832 |

Reference: the supplement of paper PMC10307832
